For orientation: EC50 means the concentration at which the effect is half-maximal.

Molecules are shown by their SMILES.

For this experiment, the system named is RKO p21 uninduced (proliferating) colon adenocarcinoma cells. As to the kind of experiment: Alamar Blue cell viability assay, RKO p21 uninduced (proliferating). Type of experiment: cell-based. To be noted: Homo sapiens, Table B3, anti-proliferative/cytotoxic activity, 72 hours, read-out: −log EC50 RKO p21 uninduced (proliferating) (converted). In short, it runs like this:
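Viability read by Alamar Blue fluorescence (ex 544, em 590 nm), normalised to untreated wells, after 72 h, 37° C, 5% CO2 compound exposure in triplicate. Cells were uninduced (no Ponasterone A), proliferating RKO colon carcinoma p27 or p21 subclones in DMEM with 10% FCS; values are −log EC50 (mol/l).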
A general note: Alamar Blue is a resazurin reagent that responds to reducing activity.
As to `COc1cc2c3c([nH]c2cc1F)[C@@H](c1cccc(O)c1)N1C(=O)N(CCCN2CCCC2)C(=O)[C@]1(C)C3` (racemic) [Example 322, (3aSR,10RS)-7-Fluoro-10-(3-hydroxy-phenyl)-6-methoxy-3a-methyl-2-(3-pyrrolidin-1-yl-propyl)-3a,4,9,10-tetrahydro-2,9,10a-triaza-cyclopenta[b]fluorene-1,3-dione], the EC50 was 39.8 to 251 nM.
For the molecule `COCCNCCCN1C(=O)N2[C@H](c3cccc(O)c3)c3[nH]c4cc(F)c(OC)cc4c3C[C@@]2(C)C1=O` (racemic) [Example 306, (3aSR,10RS)-7-Fluoro-10-(3-hydroxy-phenyl)-6-methoxy-2-[3-(2-methoxy-ethylamino)-propyl]-3a-methyl-3a,4,9,10-tetrahydro-2,9,10a-triaza-cyclopenta[b]fluorene-1,3-dione], the EC50 is 39.8 to 251 nM.
As for `C[C@@]12Cc3c([nH]c4cc(F)c(Cl)cc34)[C@@H](c3cccc(O)c3)N1C(=O)N(CCCN1CCCC1)C2=O` (racemic) [Example 476, (3aSR,10RS)-6-Chloro-7-fluoro-10-(3-hydroxy-phenyl)-3a-methyl-2-(3-pyrrolidin-1-yl-propyl)-3a,4,9,10-tetrahydro-2,9,10a-triaza-cyclopenta[b]fluorene-1,3-dione], the EC50 was not above 39.8 nM.
Turning to `C#CCN(C)CCCN1C(=O)N2[C@H](c3cccc(O)c3)c3[nH]c4ccc(Cl)cc4c3C[C@@]2(C)C1=O` (racemic) [Example 170, (3aSR,10RS)-6-Chloro-10-(3-hydroxy-phenyl)-3a-methyl-2-[3-(methyl-prop-2-ynyl-amino)-propyl]-3a,4,9,10-tetrahydro-2,9,10a-triaza-cyclopenta[b]fluorene-1,3-dione], the EC50 was 39.8 to 251 nM.
On to `C[C@@]12Cc3c([nH]c4cc(F)c(Cl)cc34)[C@@H](c3cccc(O)c3)N1C(=O)N(CCNCCO)C2=O` (racemic) [Example 342, (3aSR,10RS)-6-Chloro-7-fluoro-2-[2-(2-hydroxy-ethylamino)-ethyl]-10-(3-hydroxy-phenyl)-3a-methyl-3a,4,9,10-tetrahydro-2,9,10a-triaza-cyclopenta[b]fluorene-1,3-dione], for which the EC50 was not above 39.8 nM.
Consider `C=CCNCCCN1C(=O)N2[C@H](c3cccc(O)c3)c3[nH]c4ccc(OCC)cc4c3C[C@@]2(C)C1=O` (racemic) [Example 191, (3aSR,10RS)-2-(3-Allylamino-propyl)-6-ethoxy-10-(3-hydroxy-phenyl)-3a-methyl-3a,4,9,10-tetrahydro-2,9,10a-triaza-cyclopenta[b]bluorene-1,3-dione], for which the EC50 is 39.8 to 251 nM.
On to `CN(CCO)CCCN1C(=O)N2[C@H](c3cccc(O)c3)c3[nH]c4ccc(OC(F)F)cc4c3C[C@@]2(C)C1=O` (racemic) [Example 453, (3aSR,10RS)-6-(1,1-Difluoro-methoxy)-2-{3-[(2-hydroxy-ethyl)-methyl-amino]-propyl}-10-(3-hydroxy-phenyl)-3a-methyl-3a,4,9,10-tetrahydro-2,9,10a-triaza-cyclopenta[b]fluorene-1,3-dione], for which the EC50 is not above 39.8 nM.
For `CC1CCN(CCCN2C(=O)N3[C@H](c4cccc(O)c4)c4[nH]c5cc(F)c(Cl)cc5c4C[C@@]3(C)C2=O)CC1` (racemic) [Example 479, (3aSR,10RS)-6-Chloro-7-fluoro-10-(3-hydroxy-phenyl)-3a-methyl-2-[3-(4-methyl-piperidin-1-yl)-propyl]-3a,4,9,10-tetrahydro-2,9,10a-triaza-cyclopenta[b]fluorene-1,3-dione], the EC50 was 39.8 to 251 nM.
As to `CCOc1ccc2[nH]c3c(c2c1)C[C@@]1(C)C(=O)N(CCCN2CC=CCC2)C(=O)N1[C@@H]3c1cccc(O)c1` (racemic) [Example 208, (3aSR,10RS)-2-[3-(3,6-Dihydro-2H-pyridin-1-yl)-propyl]-6-ethoxy-10-(3-hydroyx-phenyl)-3a-methyl-3a,4,9,10-tetrahydro-2,9,10a-triaza-cyclopenta[b]fluorene-1,3-dione], the EC50 is 39.8 to 251 nM.
As for `C[C@@]12Cc3c([nH]c4ccc(Br)cc34)[C@@H](c3cccc(O)c3)N1C(=O)N(CCCNCCO)C2=O` (racemic) [Example 235, (3aSR,10RS)-6-Bromo-2-[3-(2-hydroxy-ethylamino)-propyl]-10-(3-hydroxy-phenyl)-3a-methyl-3a,4,9,10-tetrahydro-2,9,10a-triaza-cyclopenta[b]fluorene-1,3-dione], the EC50 is not above 39.8 nM.
For `CCN(C)CCCN1C(=O)N2[C@H](c3cccc(O)c3)c3[nH]c4cc(F)c(Cl)cc4c3C[C@@]2(C)C1=O` (racemic) [Example 467, (3aSR,10RS)-6-Chloro-2-[3-(ethyl-methyl-amino)-propyl]-7-fluoro-10-(3-hydroxy-phenyl)-3a-methyl-3a,4,9,10-tetrahydro-2,9,10a-triaza-cyclopenta[b]fluorene-1,3-dione] the value was not above 39.8 nM; for `CC(C)(C)NCCN1C(=O)N2[C@H](c3cccc(O)c3)c3[nH]c4ccc(Br)cc4c3C[C@@]2(C)C1=O` (racemic) [Example 378, (3aSR,10RS)-6-Bromo-2-(2-tert-butylamino-ethyl)-10-(3-hydroxy-phenyl)-3a-methyl-3a,4,9,10-tetrahydro-2,9,10a-triaza-cyclopenta[b]fluorene-1,3-dione], not above 39.8 nM.
With `C[C@@]12Cc3c([nH]c4cc(F)c(Cl)cc34)[C@@H](c3cccc(O)c3)N1C(=O)N(CCN1CCCC1)C2=O` (racemic) [Example 354, (3aSR,10RS)-6-Chloro-7-fluoro-10-(3-hydroxy-phenyl)-3a-methyl-2-(2-pyrrolidin-1-yl-ethyl)-3a,4,9,10-tetrahydro-2,9,10a-triaza-cyclopenta[b]fluorene-1,3-dione], the EC50 is not above 39.8 nM.
As to `CC(=O)N1CCN(CCCN2C(=O)N3[C@H](c4cccc(O)c4)c4[nH]c5ccc(Br)cc5c4C[C@@]3(C)C2=O)CC1` (racemic) [Example 220, (3aSR,10RS)-2-[3-(4-Acetyl-piperazin-1-yl)-propyl]-6-bromo-10-(3-hydroxy-phenyl)-3a-methyl-3a,4,9,10-tetrahydro-2,9,10a-triaza-cyclopenta[b]fluorene-1,3-dione], the EC50 was 39.8 to 251 nM.
Under `COCCNCCCN1C(=O)N2[C@H](c3cccc(O)c3)c3[nH]c4ccc(OC)cc4c3C[C@@]2(C)C1=O` [Example 490, (3aS,10R)-10-(3-Hydroxy-phenyl)-6-methoxy-2-[3-(2-methoxy-ethylamino)-propyl]-3a-methyl-3a,4,9,10-tetrahydro-2,9,10a-triaza-cyclopenta[b]fluorene-1,3-dione] stands not above 39.8 nM; under `CN1CCN(CCCN2C(=O)N3[C@H](c4cccc(O)c4)c4[nH]c5ccc(OC(F)F)cc5c4C[C@@]3(C)C2=O)CC1` (racemic) [Example 240, (3aSR,10RS)-6-(1,1-Difluoro-methoxy)-10-(3-hydroyx-phenyl)-3a-methyl-2-[3-(4-methyl-piperazin-1-yl)-propyl]-3a,4,9,10-tetrahydro-2,9,10a-triaza-cyclopenta[b]fluorene-1,3-dione], 39.8 to 251 nM.
Take `COCCNCCCN1C(=O)N2[C@H](c3cccc(O)c3)c3[nH]c4cc(F)c(Cl)cc4c3C[C@@]2(C)C1=O` (racemic) [Example 462, (3aSR,10RS)-6-Chloro-7-fluoro-10-(3-hydroxy-phenyl)-2-[3-(2-methoxy-ethylamino)-propyl]-3a-methyl-3a,4,9,10-tetrahydro-2,9,10a-triaza-cyclopenta[b]fluorene-1,3-dione]: the EC50 is not above 39.8 nM.
For `CCN(CCCN1C(=O)N2[C@H](c3cccc(O)c3)c3[nH]c4cc(F)c(Cl)cc4c3C[C@@]2(C)C1=O)CCOC` (racemic) [Example 471, (3aSR,10RS)-6-Chloro-2-{3-[ethyl-(2-methoxy-ethyl)-amino]-propyl}-7-fluoro-10-(3-hydroxy-phenyl)-3a-methyl-3a,4,9,10-tetrahydro-2,9,10a-triaza-cyclopenta[b]fluorene-1,3-dione], the EC50 was 39.8 to 251 nM.
For the molecule `CC(=O)N1CCN(CCN2C(=O)N3[C@H](c4cccc(O)c4)c4[nH]c5ccc(OC(F)F)cc5c4C[C@@]3(C)C2=O)CC1` (racemic) [Example 295, (3aSR,10RS)-2-[2-(4-Acetyl-piperazin-1-yl)-ethyl]-6-(1,1-difluoro-methoxy)-10-(3-hydroxy-phenyl)-3a-methyl-3a,4,9,10-tetrahydro-2,9,10a-triaza-cyclopenta[b]fluorene-1,3-dione], the EC50 is 39.8 to 251 nM.
For `C=CCN(C)CCCN1C(=O)N2[C@H](c3cccc(O)c3)c3[nH]c4cc(F)c(OC)cc4c3C[C@@]2(C)C1=O` (racemic) [Example 317, (3aSR,10RS)-2-[3-(Allyl-methyl-amino)-propyl]-7-fluoro-10-(3-hydroyx-phenyl)-6-methoxy-3a-methyl-3a,4,9,10-tetrahydro-2,9,10a-triaza-cyclopenta[b]fluorene-1,3-dione], the EC50 was 39.8 to 251 nM.
With `CCN(C)CCCN1C(=O)N2[C@H](c3cccc(O)c3)c3[nH]c4cc(F)c(OC)cc4c3C[C@@]2(C)C1=O` (racemic) [Example 311, (3aSR,10RS)-2-[3-(Ethyl-methyl-amino)-propyl]-7-fluoro-10-(3-hydroxy-phenyl)-6-methoxy-3a-methyl-3a,4,9,10-tetrahydro-2,9,10a-triaza-cyclopenta[b]fluorene-1,3-dione], the EC50 is 39.8 to 251 nM.
With `C[C@@]12Cc3c([nH]c4ccc(Br)cc34)[C@@H](c3cccc(O)c3)N1C(=O)N(CCCNC1CCC1)C2=O` (racemic) [Example 369, (3aSR,10RS)-6-Bromo-2-(3-cyclobutylamino-propyl)-10-(3-hydroxy-phenyl)-3a-methyl-3a,4,9,10-tetrahydro-2,9,10a-triaza-cyclopenta[b]fluorene-1,3-dione], the EC50 is not above 39.8 nM.
For `COc1cc2c3c([nH]c2cc1F)[C@@H](c1cccc(O)c1)N1C(=O)N(CCCN2CCC(C)CC2)C(=O)[C@]1(C)C3` (racemic) [Example 327, (3aSR,10RS)-7-Fluoro-10-(3-hydroxy-phenyl)-6-methoxy-3a-methyl-2-[3-(4-methyl-piperidin-1-yl)-propyl]-3a,4,9,10-tetrahydro-2,9,10a-triaza-cyclopenta[b]fluorene-1,3-dione] the value was 39.8 to 251 nM.

The values are drawn from patent publication US8530493B2, “Indolopyridines as Eg5 kinesin modulators” (4SC AG, priority 2006, dated 2013).
